These are literature values, as cited in patent publication EP1017675B1, “HIGHLY LIPOPHILIC CAMPTOTHECIN DERIVATIVES” (BIONUMERIK PHARMACEUTICALS, INC., priority 1997, dated 1998).

The conditions of this data set: parenterally administered; fraction of the lactone form's potency.

Turning to `CC[C@@](O)(C(=O)O)c1cc2n(c(=O)c1CO)Cc1cc3ccccc3nc1-2` [carboxylate species], the “antitumor potency relative to the lactone form” value is reported as “one-tenth”.
